# Results published in patent US20200181101A1, “BENZAMIDE INHIBITORS OF BACTERIAL LIPOPROTEIN SIGNAL PEPTIDASE” (The Scripps Research Institute, priority 2017, published 2020).
# Entries after “also recorded” stand apart in the source; their conditions may differ. Like-named read-outs stand apart in the source and are kept apart here. Square brackets hold non-standard residues; d marks the D form. Peptide text beside a SMILES is read from it. * marks the point of attachment. Sta = CC(C)C[C@H](N)[C@@H](O)CC(=O)O; Isovaleryl = CC(C)CC(=O)*
# Tests used:
# E. coli DW37 = assay: Bacteria growth assay, isogenic parent strain DW37; type: cell-based; design: dose or concentration left out as unconfirmed; conditions: OD600 at 10 h
# Method: (§1) Effect of compounds on bacterial growth was measured using the method described previously with slight modifications^[1]. Colony suspension method was used to prepare bacteria suspension using McFarland Standard 0.5 to adjust the turbidity. Cells were introduced to two-fold serial dilutions of compound in a final volume of 105 μL with 5% DMSO. Mueller-Hinton broth (MH) or LB broth was used for E. coli ATCC25922 or E. coli DW37 and YX23, respectively. Plates were incubated at 37° C., and the OD600 was measured using a PerkinElmer EnVision plate reader after gentle shaking. Mutant E. coli (DW37 and YX23) were previously described.^[2] Globomycin was used as a positive control and the concentration-response curves of globomycin on bacteria growth (E. coli ATCC25922) is shown below (error bar: SD).
# E. coli YX23 [1] = assay: Bacteria growth assay, Lsp-inhibition resistant mutant YX23; type: cell-based; design: dose or concentration left out as unconfirmed; conditions: OD600 at 24 h
# Method: as §1
# E. coli (ATCC25922) = assay: Bacteria growth assay, E. coli ATCC25922; type: cell-based
# Method: as §1
# Lsp from E. coli = biological target: T1, Lsp from E. coli (Escherichia coli, UniProt P00804); assay: Lsp FRET activity assay, IC50 determination; type: biochemical; conditions: for IC50: read-out: IC50
# T1 construct: The full-length Lsp clone from E. coli (residues 1-164); His6 with enterokinase cleavage site (pET19b) (N); made in house; host or cells: E. coli Lemo21 (DE3), pET19b vector
# T1 sequence (P00804 whole entry, the tested form may be a part): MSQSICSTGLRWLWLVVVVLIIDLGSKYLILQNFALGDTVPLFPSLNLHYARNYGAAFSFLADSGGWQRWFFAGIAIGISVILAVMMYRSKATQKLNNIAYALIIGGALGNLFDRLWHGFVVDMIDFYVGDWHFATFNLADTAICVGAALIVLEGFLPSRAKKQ
# Method: […] […] 50 μM Lsp FRET substrate was subsequently added and the rate of substrate hydrolysis was measured by increase in fluorescence (excitation 355 nm, emission 495 nm) in 96-well plates on a PerkinElmer EnVision plate reader or Tecan Safire 2 microplate reader. Michaelis-Menten constants and […] were determined using GraphPad Prism software (GraphPad, Inc.).
# E. coli YX23 [2] = conditions: literature [14]; cited from earlier work
compound,measurement,setting,value
"CCC(CC)c1nnc(NC(=O)c2cc(OC)c(OC3CCCC3)cc2[N+](=O)[O-])s1 [1j, 4-(cyclopentyloxy)-5-methoxy-2-nitro-N-(5-(pentan-3-yl)-1,3,4-thiadiazol-2-yl)benzamide]",growth of DW37,E. coli DW37,inhibited the growth
same,growth of YX23,E. coli YX23 [1],resistant; also recorded: did not inhibit the growth
same,"bacterial growth, in words",E. coli (ATCC25922); cultures of E. coli,inhibits bacterial growth
same,effect on cleaved substrate fluorescence,Lsp from E. coli,no effect
same,Hill constant,"Lsp from E. coli; [S]=50 μM, [Lsp]=100 nM",approximately 1
same,IC50,Lsp from E. coli,0.099 µM
"COc1cc(C(=O)Nc2nnc(C3CCCCC3)s2)c([N+](=O)[O-])cc1OC [1c, N-(5-cyclohexyl-1,3,4-thiadiazol-2-yl)-4,5-dimethoxy-2-nitrobenzamide]","bacterial growth, in words",E. coli (ATCC25922); in combination with PMBN 8 mg/L,did not inhibit the bacterial growth
same,"potency against Lsp, in words (SAR)",Lsp from E. coli,ablated the potency
same,IC50,"Lsp from E. coli; FRET-based assay, [Lsp] = 400 nM, mean (± SD)",> 400 µM
"CCCCCCC1OC(=O)CNC(=O)C(C(C)O)NC(=O)C(CO)NC(=O)C(C(C)CC)NC(=O)C(CC(C)C)N(C)C(=O)C1C (stereo not drawn) [Globomycin, globomycin]",resistance of YX23,E. coli YX23 [2],resistant
CCCC1OC(=O)C(C)CC(C)CCCCC(=O)CCCC(CC)/C=C/C=C(\COC)CCC(O)C(O)CC(O)CNC1=O (stereo not drawn) [myxovirescin],resistance of YX23,E. coli YX23 [2],resistant
"CC(C)[C@H](O)C(=O)N[C@@H](C)C(=O)N[C@@H]1C(=O)N(C)CCc2ccccc21 [semagacestat, reference compound]",inhibition of E. coli Lsp by known aspartic acid protease inhibitors,Lsp from E. coli,no known aspartic acid protease inhibitors
CCC(CC)c1nnc(NC(=O)c2cc(OC)ccc2[N+](=O)[O-])s1 [Sk052-146-1],IC50,Lsp from E. coli; Table 4,3.6 µM
CCC(CC)c1nnc(NC(=O)c2ccc(C(F)(F)F)cc2[N+](=O)[O-])s1 [Z123635394],IC50,Lsp from E. coli; Table 4,9.3 µM
COC(=O)CCc1nnc(NC(=O)c2cc(OC)c(OC)cc2[N+](=O)[O-])s1 [Sk052-147-3],IC50,"Lsp from E. coli; Table 2, variation of R3",> 200 µM
CCC(CC)c1nnc(NC(=O)c2ccccc2CC(=O)OC)s1 [Sk056-82-1],IC50,Lsp from E. coli; Table 4,21 µM
CCC(CC)c1nnc(NC(=O)c2ccc(F)cc2[N+](=O)[O-])s1 [Sk054-91-3],IC50,Lsp from E. coli; Table 4,7.2 µM
CCC(C)c1nnc(NC(=O)c2cc(OC)c(OC)cc2[N+](=O)[O-])s1 (stereo not drawn) [Sk061-69-2],IC50,"Lsp from E. coli; Table 2, variation of R3",8.7 µM
CCCc1nnc(NC(=O)c2cc(OC)c(OC)cc2[N+](=O)[O-])s1 [Sk054-141-2],IC50,"Lsp from E. coli; Table 2, variation of R3",26 µM
CCC(CC)c1nnc(NC(=O)c2cc(Cl)c(OC3CCN(C(=O)OC(C)(C)C)CC3)cc2[N+](=O)[O-])s1 [Sk061-80-4],IC50,"Lsp from E. coli; Table 7, linker variation, E = 100 nM",1.1 µM
"CCCCOc1cc([N+](=O)[O-])c(C(=O)Nc2nnc(C(CC)CC)s2)cc1OC [1g, 4-butoxy-5-methoxy-2-nitro-N-(5-(pentan-3-yl)-1,3,4-thiadiazol-2-yl)benzamide]",IC50,"Lsp from E. coli; FRET-based assay, [Lsp] = 100 nM, mean (± SD)",0.54 µM
CCC(CC)c1nnc(NC(=O)c2cc(OS(=O)(=O)On3nnc4ncccc43)ccc2[N+](=O)[O-])s1 [Sk054-141-1],IC50,Lsp from E. coli; Table 4,120 µM
"CC(C)CC(=O)N[C@H](C(=O)N[C@H](C(=O)N[C@@H](CC(C)C)[C@@H](O)CC(=O)N[C@@H](C)C(=O)N[C@@H](CC(C)C)[C@@H](O)CC(=O)O)C(C)C)C(C)C [pepstatin, reference compound] (Isovaleryl-VV[Sta]A[Sta]-OH)",inhibition of E. coli Lsp by known aspartic acid protease inhibitors,Lsp from E. coli,no known aspartic acid protease inhibitors
CCC(CC)c1nnc(NC(=O)c2cc(Cl)c(NC3CCCC3)cc2[N+](=O)[O-])s1 [Sk056-16-1],IC50,"Lsp from E. coli; Table 5, [Lsp] = 20 nM",0.17 µM
CCC(CC)c1nnc(NC(=O)c2ccc(OC)cc2N)s1 [Sk054-142],IC50,Lsp from E. coli; Table 4,11 µM
O=C(O)CCSCCCCCc1nnc(NC(=O)c2cc(Cl)c(OC3CCCC3)cc2[N+](=O)[O-])s1 [Sk056-27],IC50,Lsp from E. coli; Table 6,11 µM
COc1cc(C(=O)Nc2ccc(C(C)C)nc2)c([N+](=O)[O-])cc1OC [Sk056-82-4],IC50,Lsp from E. coli; Table 3,> 400 µM
"COC(=O)N[C@H](C(=O)N[C@@H](Cc1ccccc1)[C@@H](O)CN(Cc1ccc(-c2ccccn2)cc1)NC(=O)[C@@H](NC(=O)OC)C(C)(C)C)C(C)(C)C [atazaniavir, reference compound]",inhibition of E. coli Lsp by known aspartic acid protease inhibitors,Lsp from E. coli,no known aspartic acid protease inhibitors
CCC(CC)c1nnc(NC(=O)c2c(Cl)cccc2[N+](=O)[O-])s1 [Sk056-82-2],IC50,Lsp from E. coli; Table 4,260 µM
COc1cc(C(=O)Nc2nnc(C(C)(C)C)s2)c([N+](=O)[O-])cc1OC [Sk061-69-3],IC50,"Lsp from E. coli; Table 2, variation of R3",36 µM
